Measurements taken from article PMC6105642, “A platform for discovery of functional cell-penetrating peptides for efficient multi-cargo intracellular delivery” (Scientific Reports, 2018).
Square brackets hold non-standard residues; d marks the D form. Peptide text beside a SMILES is read from it.

How the values were obtained:
CHO-K1 cells = test: Peptide cytotoxicity, cell viability by resazurin reduction; type: cell-based; details: CPP alone up to 50 µM, 24 h and 48 h, presence of sera
Protocol: To ensure that 1746 and 1746c27 are not innately cytotoxic, we assessed their effect on cell viability. CHO-K1 cells were treated with CPPs in the presence of sera at 24 h (Fig. 4a) and 48 h (Fig. 4b). The effects of CPPs on cellular membrane stability were assessed using a LDH enzymatic assay, measuring LDH release at 2 h (Fig. 4c) and 24 h (Fig. 4d) after peptide addition.
(§1) All cell viability studies were performed in the presence of FCS. Cells were seeded at 2.5–5 × 10^3 cells/well, depending on cell line, in 96-well plates (PAP assays: CHO-K1 at 3 × 10^3 cells/well; peptide cytotoxicity assays: CHO-K1 at 5 × 10^3 cells/well; Bouganin assay: CHO-K1 and CHO-K1/EGFR at 2.5 × 10^3 cells/well; ^DPMIα assays: T47D at 5 × 10^3 cells/well; Omomyc assays: all cell lines at 5 × 10^3 cells/well). In brief, adherent cells were allowed to adhere for 24 h prior to the addition of treatments whereas suspension cell lines were treated immediately following seeding. Following 2–48 h incubations with treatments, cell viability was measure by a variety of methods. Membrane integrity was assessed by the release of LDH into the media via the CytoTox-ONE reagent (Promega). Metabolic activity was measured either by resazurin reduction potential using PrestoBlue (Life Technologies) or by ATP activity using CellTitre-Glo (Promega). […] IC50 values were calculated using Prism (version 7.0a, GraphPad).

C57BL/10ScSn^mdx mice = test: Exon skipping in vivo by RT-PCR and Western blot; parameters: species or system mouse; details: five IP injections over two weeks, 4 nmoles per dose; RT-PCR / immunoblot; diaphragm, tibialis anterior, heart
Protocol: Exon skipping in vivo was evaluated at the (a, c) RNA and (b) protein level in the Duchenne muscular dystrophy mouse disease model. RNA was extracted from tissues of C57BL/10ScSn^mdx mice treated with five intra-peritoneal injections of CPP_PMO cargo over two weeks at 4 nmoles per dose (injected volume increased with increased weight of the mice). Pip6, a traditional carrier CPP for peptide-oligonucleotide conjugates in the mdx disease model of DMD^9, was tested in vivo in parallel for comparison. All samples were loaded onto the gel using normalization by myosin densitometry, to enable a quantitative comparison.^10
Tissues were sectioned (6 µm thickness) before adding lysis buffer. Otherwise exon skipping assays and RT-PCR detection were performed following the same protocols used for detection of exon skipping in vitro in myoblasts cells (see Methods of main text).
Samples were vortexed for 10 sec, sonicated at a setting of 30/100 (Sonics sonicator) for 6 x 1 sec pulses, heated at 95 °C for 5 min and centrifuged at 14,000rpm on a Beckman microfuge for 4 min before loading. Total protein was quantitated by BCA assay (Pierce). Average total protein concentration was 2.3 µg/µl. […] Coomassie stained bands were analysed using Bio1D software and the results were used as a loading control to provide equal loading for the western gel that followed. […]

C57BL/6J mice = test: Serum parameters of kidney and liver toxicity in mice; type: in vivo, mouse; details: 40 mg/kg/day IP for 7 days, n = 6
Protocol: To examine 1746c27 toxicity in vivo, a cohort of adult male C57BL/6J mice (n = 6) were treated with the CPP. Following approved standard preliminary toxicity testing guidelines (Food and Drug Administration, FDA, and European Medicines Agency, EMA), mice were injected intraperitoneally daily for 7 days with 40 mg/kg of 1746c27. After a further 8 days the mice were culled (on day 15) and serum was extracted and used to examine kidney and liver toxicity. Urea, creatinine, aspartate transaminase (AST) and alanine transaminase (ALT) concentrations were measured. […] ALT (p = 0.054) and creatinine (p = 0.01) levels were lower compared to untreated control mice, which supports the finding of minimal toxicity.
All mouse studies were approved by the Animal Ethics Committee of The University of Western Australia in accordance with the Australian Code of Practice for the Care and Use of Animals for Scientific Purposes (NH&MRC, 8th Edition, 2013). Studies were performed using adult male C57BL/6J mice weighing approximately 20 g. Mice were treated with 1746c27 (40 mg/kg/day intraperitoneally) for 7 days (day 1–7), followed by no treatment on days 8–15. On day 15, mice were anesthetized with intraperitoneal injection of pentobarbitone sodium (240 mg/kg), and their terminal blood collected. Serum was extracted and used to measure kidney and liver toxicity. Urea and creatinine concentration was assessed using QuantiChrom Urea and Creatinine assay kits, respectively (BioAssay Systems). Aspartate transaminase (AST) and alanine transaminase (ALT) concentration were measured using EnzyChrom Aspartate Transaminase and Alanine Transaminase assay kits, respectively (BioAssay Systems). All assays were performed as per manufacturer’s instructions, using a spectrophotometer (PowerWave XS).

T47D (breast cancer) = test: Omomyc cell viability assay (ATP activity); type: cell-based, human; details: 48 h
Excerpt: (§2) Next 1746c27 was used to deliver the Omomyc[45],[46] protein cargo. This well-characterized dominant-negative protein directly binds and inhibits the transcription factor MYC. A master regulator of critical cellular processes, MYC is an intracellular oncoprotein target deemed “undruggable” using conventional biological therapeutics. Treatment with recombinant 1746c27_Omomyc (Fig. 3a, cargo 4) induced a dose-dependent decrease in cell viability in MYC-dependent blood cancer cell lines and T47D cells in the presence of sera. […] The potency of 1746c27_Omomyc was greater than small molecule inhibitors of MYC, 10058-F4 and KJ-Pyr9 (Supplementary Fig. 8).
(§3) All cell viability studies were performed in the presence of FCS. […] Membrane integrity was assessed by the release of LDH into the media via the CytoTox-ONE reagent (Promega). Metabolic activity was measured either by resazurin reduction potential using PrestoBlue (Life Technologies) or by ATP activity using CellTitre-Glo (Promega). […] IC50 values were calculated using Prism (version 7.0a, GraphPad).

[1] = test system: HL-60 (promyelocytic leukemia); test: Omomyc cell viability assay (ATP activity); type: cell-based; details: 48 h
Excerpt: as §2, §3

AMO-1 (plasmacytoma) = test: Omomyc cell viability assay (ATP activity); type: cell-based; details: 48 h
Excerpt: as §2, §3

T47D cells = test: ^DPMIα delivery cell viability assay; type: cell-based, human; details: 48 h incubation; presence of sera; resazurin reduction potential
Protocol: A variety of cell types and cargos confirmed the potency and versatility of Phylomer CPP delivery. Different functional assays applied readouts designed to directly quantify delivery of an established biologic cargo. […] CPP_^DPMIα synthetic peptides (Supplementary Table 7 and Fig. 3a, cargo 2) reduced viability of human breast tumor cells (T47D) in the presence of sera, indicating the successful delivery of ^DPMIα into the cells (Fig. 5a).
as §1, with “Following 2–48 h incubations with treatments, cell viability was measure by a variety of methods.” left out

Question: With “Ac-KKKKQPPKPKKPKTQEKKKKQPPKPKR-NH2 (N-terminus and C-terminus assumed) [1746c27]” as the compound, how does the “cytotoxic activity, cell viability” value (CHO-K1 cells) read?
Answer: no measurable cytotoxicity

Question: What about the “exon 23 skipping in tissues, in words” value (C57BL/10ScSn^mdx mice) of the same compound?
Answer: not detected

Question: And the “toxicity in vivo, in words” value (C57BL/6J mice)?
Answer: minimal evidence of toxicity

Question: What about the “ALT Mean” value (C57BL/6J mice; serum day 15) of the same compound?
Answer: 59.73 U/L

Question: And the “AST Mean” value (C57BL/6J mice; serum day 15)?
Answer: 84.98 U/L

Question: What about the “Creatinine Mean” value (C57BL/6J mice; serum day 15) of the same compound?
Answer: 0.33 mg/dL

Question: What about the “Urea Mean” value (C57BL/6J mice; serum day 15) of the same compound?
Answer: 50.99 mg/dL

Question: What about the “effect on cell viability, in words” value (T47D (breast cancer)) of the same compound?
Answer: no notable effect on cell viability

Question: What about the “effect on cell viability, in words” value [1] of the same compound?
Answer: no notable effect on cell viability

Question: What about the “effect on cell viability, in words” value (AMO-1 (plasmacytoma)) of the same compound?
Answer: no notable effect on cell viability

Question: For “Ac-PLKPKKPKTQEKKKKQPPKPKKPKTQEKKKKQPPKPKRGAS[dT][dN][dW][dY][dA][dN][dL][dE][dK][dL][dL][dR]-NH2 [1746_^DPMIα]”, which IC50 (T47D cells) is on record?
Answer: 9.1 µM

Question: For CC(=O)NCC(=O)N[C@@H](CCCNC(=N)N)C(=O)N[C@@H](CCCCN)C(=O)N[C@@H](CCCCN)C(=O)N[C@@H](CCCNC(=N)N)C(=O)N[C@@H](CCCNC(=N)N)C(=O)N[C@@H](CCC(N)=O)C(=O)N[C@@H](CCCNC(=N)N)C(=O)N[C@@H](CCCNC(=N)N)C(=O)N[C@@H](CCCNC(=N)N)C(=O)NCC(=O)N[C@@H](C)C(=O)N[C@@H](CO)C(=O)N[C@@H](C(=O)N[C@H](CC(N)=O)C(=O)N[C@H](Cc1c[nH]c2ccccc12)C(=O)N[C@H](Cc1ccc(O)cc1)C(=O)N[C@H](C)C(=O)N[C@H](CC(N)=O)C(=O)N[C@H](CC(C)C)C(=O)N[C@H](CCC(=O)O)C(=O)N[C@H](CCCCN)C(=O)N[C@H](CC(C)C)C(=O)N[C@H](CC(C)C)C(=O)N[C@H](CCCNC(=N)N)C(N)=O)[C@H](C)O [TAT_^DPMIα, reference compound] (Ac-GRKKRRQRRRGAS[dT][dN][dW][dY][dA][dN][dL][dE][dK][dL][dL][dR]-NH2), which IC50 (T47D cells) is on record?
Answer: 36.6 µM
